PubChem BioAssay (NCI)
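The compound was tested at five concentrations on cells cultured in 96-well plates, with a 48-hour exposure period. GI50 is the concentration that inhibits growth by half. TGI: concentration producing complete growth inhibition.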

Tests used:
Assay in all cases: inhibition of tumour cell growth, NCI panel, 48 h
[1] = tested on: DU-145 prostate
[2] = tested on: TK-10 renal
[3] = tested on: SK-OV-3 ovarian
[4] = tested on: IGROV1 ovarian
[5] = tested on: UACC-62 melanoma
[6] = tested on: UO-31 renal
[7] = tested on: OVCAR-4 ovarian
[8] = tested on: CCRF-CEM leukemia
[9] = tested on: HOP-92 NSCLC
[10] = tested on: SNB-19 CNS
[11] = tested on: A498 renal
[12] = tested on: NCI/ADR-RES ovarian
[13] = tested on: HCT-15 colon
[14] = tested on: HCC-2998 colon
[15] = tested on: COLO 205 colon
[16] = tested on: OVCAR-3 ovarian
[17] = tested on: SK-MEL-5 melanoma
[18] = tested on: 786-0 renal
[19] = tested on: NCI-H226 lung
[20] = tested on: MDA-MB-231 breast
[21] = tested on: HL-60(TB) leukemia
[22] = tested on: HCT-116 colon
[23] = tested on: U251 CNS
[24] = tested on: BT-549 breast
[25] = tested on: HT29 colon
[26] = tested on: SN12C renal
[27] = tested on: SF-539 CNS
[28] = tested on: KM12 colon
[29] = tested on: HS 578T breast
[30] = tested on: NCI-H522 lung
[31] = tested on: LOX IMVI melanoma
[32] = tested on: SF-268 CNS
[33] = tested on: SNB-75 CNS
[34] = tested on: MALME-3M melanoma
[35] = tested on: EKVX NSCLC
[36] = tested on: OVCAR-5 ovarian
[37] = tested on: CAKI-1 renal
[38] = tested on: A549 NSCLC
[39] = tested on: MCF7 breast
[40] = tested on: RPMI-8226 leukemia
[41] = tested on: MDA-MB-435
[42] = tested on: SF-295 CNS
[43] = tested on: HOP-62 NSCLC
[44] = tested on: SK-MEL-2 melanoma
[45] = tested on: NCI-H460 lung
[46] = tested on: RXF 393 renal
[47] = tested on: SW-620 colon
[48] = tested on: SR leukemia
[49] = tested on: UACC-257 melanoma
[50] = tested on: OVCAR-8 ovarian
[51] = tested on: MOLT-4 leukemia
[52] = tested on: K-562 leukemia
[53] = tested on: PC-3 prostate
[54] = tested on: NCI-H23 lung
[55] = tested on: M14 melanoma
[56] = tested on: ACHN renal
[57] = tested on: SK-MEL-28 melanoma
[58] = tested on: T-47D breast

**Q.** Which results are given for `NCCCCCn1c2c(c3ccccc3c1=O)C(=O)c1ccccc1-2`?
**A.** GI50 [1]: 266 nM; GI50 [2]: 714 nM; TGI [2]: 7080 nM; GI50 [3]: 531 nM; TGI [3]: 2160 nM; GI50 [4]: 241 nM; TGI [4]: 2750 nM; GI50 [5]: 1420 nM; TGI [5]: 3370 nM; GI50 [6]: 238 nM; TGI [6]: 1530 nM; GI50 [7]: 1540 nM; TGI [7]: 5580 nM; GI50 [8]: 106 nM; TGI [8]: 1160 nM; GI50 [9]: 435 nM; TGI [9]: 3720 nM; GI50 [10]: 465 nM; TGI [10]: 7660 nM; GI50 [11]: 1430 nM; TGI [11]: 4070 nM; GI50 [12]: 1410 nM; TGI [12]: 4860 nM; GI50 [13]: 163 nM; TGI [13]: 2340 nM; GI50 [14]: 529 nM; TGI [14]: 2630 nM; GI50 [15]: 639 nM; TGI [15]: 3270 nM; GI50 [16]: 1100 nM; TGI [16]: 6740 nM; GI50 [17]: 617 nM; TGI [17]: 2050 nM; GI50 [18]: 274 nM; TGI [18]: 2010 nM; GI50 [19]: 479 nM; TGI [19]: 2160 nM; GI50 [20]: 1760 nM; TGI [20]: 6090 nM; GI50 [21]: 159 nM; TGI [21]: 744 nM; GI50 [22]: 151 nM; TGI [22]: 3910 nM; GI50 [23]: 232 nM; TGI [23]: 4110 nM; GI50 [24]: 1570 nM; TGI [24]: 4600 nM; GI50 [25]: 246 nM; TGI [25]: 4660 nM; GI50 [26]: 305 nM; TGI [26]: 3970 nM; GI50 [27]: 864 nM; TGI [27]: 2480 nM; GI50 [28]: 284 nM; TGI [28]: 2480 nM; GI50 [29]: 1770 nM; TGI [29]: 12900 nM; GI50 [30]: 215 nM; TGI [30]: 1690 nM; GI50 [31]: 221 nM; TGI [31]: 1760 nM; GI50 [32]: 321 nM; TGI [32]: 3060 nM; GI50 [33]: 1200 nM; TGI [33]: 6920 nM; GI50 [34]: 1130 nM; TGI [34]: 3170 nM; GI50 [35]: 4080 nM; TGI [35]: 17100 nM; GI50 [36]: 999 nM; TGI [36]: 3840 nM; GI50 [37]: 749 nM; TGI [37]: 14000 nM; GI50 [38]: 452 nM; GI50 [39]: 69.6 nM; TGI [39]: 3490 nM; GI50 [40]: 222 nM; TGI [40]: 1510 nM; GI50 [41]: 1360 nM; TGI [41]: 3620 nM; GI50 [42]: 527 nM; TGI [42]: 6380 nM; GI50 [43]: 221 nM; TGI [43]: 2190 nM; GI50 [44]: 1410 nM; TGI [44]: 2960 nM; GI50 [45]: 53.7 nM; TGI [45]: 1020 nM; GI50 [46]: 2830 nM; TGI [46]: > 26300 nM; GI50 [47]: 166 nM; TGI [47]: 4090 nM; GI50 [48]: 35 nM; TGI [48]: 726 nM; GI50 [49]: 2000 nM; TGI [49]: 4700 nM; GI50 [50]: 497 nM; TGI [50]: 10500 nM; GI50 [51]: 28.5 nM; TGI [51]: 1740 nM; GI50 [52]: 195 nM; TGI [52]: 2470 nM; GI50 [53]: 1230 nM; TGI [53]: 5370 nM; GI50 [54]: 314 nM; TGI [54]: 1470 nM; GI50 [55]: 1410 nM; TGI [55]: 3220 nM; GI50 [56]: 190 nM; TGI [56]: 909 nM; GI50 [57]: 1460 nM; TGI [57]: 3160 nM; GI50 [58]: 451 nM; TGI [58]: 2140 nM
